Measurements reported in publication PMC8251996 (2021).

Assays:
ds6 (DNA, duplex) CGTACG = assay: fluorescence titration, independent equivalent sites; conditions: Na+ (100 mM NaCl, 10 mM sodium phosphate); buffer not in material
[1] = test system: ds10 (DNA, duplex) AAGAATTCTT; assay: as above; conditions: Na+ (100 mM NaCl, 10 mM sodium phosphate); buffer not in material

SMILES	K b (ds6 (DNA, duplex) CGTACG)	K b [1]
COc1cc(/C=C/c2ccc(O)cc2)cc(OC)c1	(1.2±0.5)×10^6 M^-1	(1.6±0.9)×10^6 M^-1
Oc1ccc(/C=C/c2cc(O)cc(O)c2)cc1	(1.6±1.4)×10^6 M^-1	(1.6±1.3)×10^6 M^-1
